Source: the NIST ThermoML archive (doi:10.1016/j.jct.2004.07.031)
“And” between values parts separate entries of the source, which are not always exact repeats. Equal entries are not always repeated.

Assay: molar heat capacity at constant pressure
Conditions: 101.33 kPa, Crystal, PPMS instrument (Quantum Design)

O=P([O-])([O-])[O-].[Gd+3] [gadolinium orthophosphate]
Conditions | molar heat capacity at constant pressure
0.525 K | 7.722 J/K/mol
0.536 K | 8.106 J/K/mol
0.547 K | 8.475 J/K/mol
0.558 K | 8.855 J/K/mol
0.569 K | 9.277 J/K/mol
0.58 K | 9.631 J/K/mol
0.591 K | 10.11 J/K/mol
0.602 K | 10.69 J/K/mol
0.614 K | 11.24 J/K/mol
0.625 K | 11.83 J/K/mol
0.637 K | 12.57 J/K/mol
0.648 K | 13.42 J/K/mol
0.659 K | 14.37 J/K/mol
0.67 K | 15.29 J/K/mol
0.681 K | 16.55 J/K/mol
0.693 K | 17.9 J/K/mol
0.703 K | 19.56 J/K/mol
0.715 K | 21.6 J/K/mol
0.726 K | 24.07 J/K/mol
0.73 K | 25.16 J/K/mol
0.733 K | 26.31 J/K/mol
0.737 K | 27.55 J/K/mol
0.738 K | 27.92 J/K/mol
0.742 K | 29.69 J/K/mol
0.743 K | 29.92 J/K/mol
0.745 K | 31.34 J/K/mol
0.747 K | 31.86 J/K/mol
0.75 K | 33.48 J/K/mol
0.751 K | 34.37 J/K/mol
0.752 K | 35.17 J/K/mol
0.755 K | 37.19 J/K/mol
0.756 K | 37.83 J/K/mol
0.758 K | 40.08 J/K/mol
0.76 K | 41.57 J/K/mol
0.763 K | 44.62 J/K/mol
0.764 K | 46.25 J/K/mol
0.765 K | 47.54 J/K/mol
0.768 K | 50.76 J/K/mol
0.77 K | 52.55 J/K/mol
0.772 K | 53.77 J/K/mol
0.773 K | 54.78 J/K/mol
0.776 K | 54.21 J/K/mol
0.777 K | 51.7 J/K/mol and 54.18 J/K/mol
0.782 K | 37.73 J/K/mol
0.783 K | 33.58 J/K/mol
0.784 K | 31.28 J/K/mol
0.786 K | 23.82 J/K/mol
0.79 K | 19.56 J/K/mol
0.791 K | 19.09 J/K/mol
0.794 K | 17.74 J/K/mol
0.796 K | 16.84 J/K/mol
0.797 K | 16.39 J/K/mol
0.799 K | 15.8 J/K/mol
0.8 K | 15.62 J/K/mol
0.804 K | 14.83 J/K/mol
0.806 K | 14.48 J/K/mol
0.816 K | 13.11 J/K/mol
0.843 K | 11.32 J/K/mol
0.867 K | 10.3 J/K/mol
0.872 K | 10.13 J/K/mol
0.882 K | 9.827 J/K/mol
0.89 K | 9.584 J/K/mol
0.892 K | 9.579 J/K/mol
0.902 K | 9.269 J/K/mol
0.912 K | 9.065 J/K/mol
0.914 K | 9.009 J/K/mol
0.922 K | 8.871 J/K/mol
0.933 K | 8.692 J/K/mol
0.939 K | 8.538 J/K/mol
0.942 K | 8.499 J/K/mol
0.952 K | 8.332 J/K/mol
0.962 K | 8.221 J/K/mol
0.963 K | 8.167 J/K/mol
0.973 K | 8.056 J/K/mol
0.983 K | 7.933 J/K/mol
0.986 K | 7.919 J/K/mol
0.993 K | 7.852 J/K/mol
1.003 K | 7.778 J/K/mol
1.01 K | 7.554 J/K/mol
1.059 K | 6.868 J/K/mol
1.141 K | 6.058 J/K/mol
1.22 K | 5.523 J/K/mol
1.301 K | 4.919 J/K/mol
1.381 K | 4.476 J/K/mol
1.461 K | 4.061 J/K/mol
1.544 K | 3.711 J/K/mol
1.619 K | 3.447 J/K/mol
1.699 K | 3.178 J/K/mol
1.78 K | 2.944 J/K/mol
1.841 K | 2.578 J/K/mol
1.86 K | 2.751 J/K/mol
1.94 K | 2.578 J/K/mol
2.02 K | 2.372 J/K/mol
2.234 K | 1.874 J/K/mol
2.648 K | 1.377 J/K/mol
3.055 K | 1.063 J/K/mol
3.464 K | 0.8457 J/K/mol
3.872 K | 0.6931 J/K/mol
4.291 K | 0.57 J/K/mol
4.675 K | 0.4911 J/K/mol
5.081 K | 0.4292 J/K/mol
5.499 K | 0.3415 J/K/mol
5.896 K | 0.3389 J/K/mol
6.3 K | 0.3079 J/K/mol
6.728 K | 0.2809 J/K/mol
7.126 K | 0.2659 J/K/mol
7.523 K | 0.2545 J/K/mol
7.936 K | 0.2483 J/K/mol
8.343 K | 0.2454 J/K/mol
8.747 K | 0.246 J/K/mol
8.971 K | 0.2476 J/K/mol
9.151 K | 0.2497 J/K/mol
9.554 K | 0.2573 J/K/mol
9.964 K | 0.2698 J/K/mol
9.976 K | 0.2696 J/K/mol
10.96 K | 0.3114 J/K/mol
11.94 K | 0.3719 J/K/mol
12.94 K | 0.4546 J/K/mol
13.93 K | 0.5628 J/K/mol
14.93 K | 0.6954 J/K/mol
15.93 K | 0.8555 J/K/mol
16.93 K | 1.039 J/K/mol
17.94 K | 1.247 J/K/mol
18.95 K | 1.476 J/K/mol
19.95 K | 1.752 J/K/mol
20.95 K | 2.036 J/K/mol
21.96 K | 2.353 J/K/mol
22.97 K | 2.692 J/K/mol
23.97 K | 3.053 J/K/mol
24.98 K | 3.44 J/K/mol
25.98 K | 3.849 J/K/mol
26.99 K | 4.279 J/K/mol
28 K | 4.714 J/K/mol
29 K | 5.169 J/K/mol
30.01 K | 5.631 J/K/mol
32 K | 6.652 J/K/mol
34 K | 7.603 J/K/mol
36.02 K | 8.663 J/K/mol
38.05 K | 9.792 J/K/mol
40.06 K | 10.89 J/K/mol
42.08 K | 12.02 J/K/mol
44.09 K | 13.17 J/K/mol
46.11 K | 14.35 J/K/mol
48.12 K | 15.55 J/K/mol
50.14 K | 16.75 J/K/mol
53.15 K | 18.58 J/K/mol
56.16 K | 20.4 J/K/mol
59.19 K | 22.22 J/K/mol
62.22 K | 24.02 J/K/mol
65.24 K | 25.8 J/K/mol
68.26 K | 27.54 J/K/mol
71.29 K | 29.29 J/K/mol
74.3 K | 31.02 J/K/mol
77.33 K | 32.72 J/K/mol
80.35 K | 34.4 J/K/mol
85.39 K | 37.09 J/K/mol
92.14 K | 40.56 J/K/mol
98.9 K | 43.87 J/K/mol
105.7 K | 47.02 J/K/mol
112.4 K | 50.06 J/K/mol
119.2 K | 53.01 J/K/mol
126 K | 55.84 J/K/mol
132.7 K | 58.53 J/K/mol
139.5 K | 61.13 J/K/mol
146.3 K | 63.67 J/K/mol
153 K | 65.98 J/K/mol
159.8 K | 68.28 J/K/mol
166.6 K | 70.53 J/K/mol
173.3 K | 72.7 J/K/mol
180.1 K | 74.71 J/K/mol
186.8 K | 76.76 J/K/mol
193.6 K | 78.76 J/K/mol
200.4 K | 80.59 J/K/mol
207.1 K | 82.32 J/K/mol
213.8 K | 84.09 J/K/mol
220.6 K | 85.76 J/K/mol
227.4 K | 87.27 J/K/mol
234.1 K | 88.95 J/K/mol
240.9 K | 90.53 J/K/mol
247.7 K | 92.18 J/K/mol
254.4 K | 93.53 J/K/mol
261.1 K | 94.92 J/K/mol
267.9 K | 96.45 J/K/mol
274.6 K | 97.84 J/K/mol
281.3 K | 98.99 J/K/mol
288.1 K | 100.29 J/K/mol
294.8 K | 101.42 J/K/mol
301.6 K | 102.56 J/K/mol
